Assay results from patent publication US20250051578A1, “RHODAMINE-METHYLENE BLUE DERIVATIVE FLUORESCENT PROBE AND PREPARATION METHOD AND APPLICATION THEREOF” (Henan Polytechnic University, priority 2023, published 2025).
“Also recorded” adds a separate entry of the source.

Test system: Raw246.7 cells
Experiment: Dual-channel confocal fluorescence imaging of ClO^− and ATP in cells
Assay type: cell-based
Conditions: for fluorescence of the NIR channel (ClO^− level) versus control group / fluorescence of the yellow channel (ATP level) versus control group: Raw246.7 cells incubated with the substance 1 h, then fluorescent probe 1×10^−5 mol/L 30 min
Procedure: After Raw246.7 cells are incubated with relevant steps, fluorescence imaging is performed by an Olympus FV500-IX70 laser confocal microscope, and results of the fluorescence imaging are shown in FIG. 6. Control group (Control): the Raw246.7 cells are incubated with the fluorescent probe (1×10^−5 mol/L) for 30 minutes (min). Oligomycin A (Omy A) group: the Raw246.7 cells are incubated with Omy A (2×10^−5 mol/L) for 1 h and then incubated with the fluorescent probe (1×10^−5 mol/L) for 30 min. Omy A+ATP group: the Raw246.7 cells are incubated with Omy A (2×10^−5 mol/L) for 1 h to obtain incubated cells, the incubated cells are incubated with the ATP (1×10^−3 mol/L) for 1 h and then incubated with the fluorescent probe (1×10^−5 mol/L) for 30 min. N-acetylcysteine (NAC) group: the Raw246.7 cells are incubated with NAC (5×10^−4 mol/L) for 1 h and then incubated with the fluorescent probe (1×10^−5 mol/L) for 30 min. NAC+ClO^− group: the Raw246.7 cells are incubated with NAC (5×10^−4 mol/L) for 1 h to obtain incubated cells, the incubated cells are incubated with ClO^− (2×10^−4 mol/L) for 1 h and then incubated with the fluorescent probe (1×10^−5 mol/L) for 30 min.
After the Raw246.7 cells are incubated with relevant steps, the fluorescence imaging is performed by the Olympus FV500-IX70 laser confocal microscope, and results of the fluorescence imaging are shown in FIG. 7. Control group (Control): the Raw246.7 cells are incubated with the fluorescent probe (1×10^−5 mol/L) for 30 min, and a concentration of glucose (Glu) in a culture media is 5.5×10^−3 mol/L. Lipopolysaccharide (LPS) group: the Raw246.7 cells are incubated with LPS ([…]) for 1 h and then incubated with the fluorescent probe (1×10^−5 mol/L) for 30 min. No Glu group: the Raw246.7 cells are incubated with the fluorescent probe (1×10^−5 mol/L) for 30 min, and no Glu is added to the culture media. High Glu group: the Raw246.7 cells are incubated with the fluorescent probe (1×10^−5 mol/L) for 30 min, and the concentration of Glu in the culture media is 2.5×10^−2 mol/L. Acetaminophen (C8H9NO2, APAP) group: the Raw246.7 cells are incubated with […] for 1 h and then incubated with the fluorescent probe (1×10^−5 mol/L) for 30 min.

| Compound | fluorescence of the NIR channel (ClO^− level) versus control group | fluorescence of the yellow channel (ATP level) versus control group | detection of ClO^− in cells by the probe (Raw246.7 cells, probe 1×10^−5 mol/L 30 min, NIR channel, listed as fluorescent probe) | detection of ATP in cells by the probe (Raw246.7 cells, probe 1×10^−5 mol/L 30 min, yellow channel, listed as fluorescent probe) |
| --- | --- | --- | --- | --- |
| CC[C@@H]1/C=C/C=C/C[C@H](C)[C@H](O)[C@](C)(O)C(=O)[C@H](C)[C@@H](O)[C@H](C)C(=O)[C@H](C)[C@@H](O)[C@H](C)/C=C/C(=O)O[C@H]2[C@@H](C)[C@@H](CC1)O[C@@]1(CC[C@@H](C)[C@@H](C[C@H](C)O)O1)[C@@H]2C [Omy A, Oligomycin A] | significantly enhanced | significantly weakened | – | – |
| CC(=O)N[C@@H](CS)C(=O)O [NAC, N-acetylcysteine] | significantly weakened | significantly enhanced | – | – |
| Lipopolysaccharide [LPS] | significantly enhanced | significantly weakened | – | – |
| CCN(CC)c1ccc2c(c1)Oc1cc(N(CC)CC)ccc1C21c2ccccc2C(=O)N1CCN1CCN(C(=O)N2c3ccc(N(C)C)cc3Sc3cc(N(C)C)ccc32)CC1 | – | – | can detect exogenous ClO^− in cells; also recorded: can detect endogenous ClO^− | can detect exogenous ATP in cells; also recorded: can detect endogenous ATP |
| CC(=O)Nc1ccc(O)cc1 [APAP, Acetaminophen] | significantly enhanced | almost non-fluorescent | – | – |
